Experimental data as given in patent US7794994B2 (Kemeta, LLC, priority 2001, dated 2010).
Each block holds one compound with its values, some of them ahead of it.

How the values were obtained:
[1] = test system: S-ADH from X. autotrophicus strain Py2; experiment: Secondary alcohol dehydrogenase NADH oxidation spectrophotometric assay; type: biochemical, Xanthobacter autotrophicus strain Py2
Experimental: (§1) Assays were performed in 2 mL quartz cuvettes and contained NAD(H) (0.2 mM), potassium phosphate buffer (25 mM), and a source of enzyme (cell-free extracts, column fractions, or purified enzyme) in a total reaction volume of 1 mL at pH 6.2 ([…]) at 30° C. Assays were pre-incubated for 1.5 min. at 30° C. with all assay components except substrate. Assays were initiated by addition of substrate (2.5 mM) and monitored over time by measuring the change in absorbance at 340 nm (∈340 of 6.22 mM^−1·cm^−1 for NADH).
Data analysis. Kinetic constants (Km and Vmax) were calculated by fitting initial rate data to the Michaelis-Menten equation and using the software KaleidaGraph Fourth Edition, (Synergy Software, Reading, Pa.).

[2] = constant perfusion at 1.36 mmol/min. for three hours; cited from earlier work
[3] = target: T1, acetone carboxylase coupled to β-hydroxybutyrate dehydrogenase (Xanthobacter versatilis, UniProt Q8RM03+Q8RM04); experiment: Acetone carboxylase coupled to NADH oxidation spectrophotometric assay; type: biochemical, X. autotrophicus strain Py2; details: alternative compounds in coupled enzyme system
T1 construct: host or cells: X. autotrophicus strain Py2 (native organism; enzyme obtained from Prof; S. A. Ensign / purified as previously published)
T1 sequence (Q8RM03 1-776): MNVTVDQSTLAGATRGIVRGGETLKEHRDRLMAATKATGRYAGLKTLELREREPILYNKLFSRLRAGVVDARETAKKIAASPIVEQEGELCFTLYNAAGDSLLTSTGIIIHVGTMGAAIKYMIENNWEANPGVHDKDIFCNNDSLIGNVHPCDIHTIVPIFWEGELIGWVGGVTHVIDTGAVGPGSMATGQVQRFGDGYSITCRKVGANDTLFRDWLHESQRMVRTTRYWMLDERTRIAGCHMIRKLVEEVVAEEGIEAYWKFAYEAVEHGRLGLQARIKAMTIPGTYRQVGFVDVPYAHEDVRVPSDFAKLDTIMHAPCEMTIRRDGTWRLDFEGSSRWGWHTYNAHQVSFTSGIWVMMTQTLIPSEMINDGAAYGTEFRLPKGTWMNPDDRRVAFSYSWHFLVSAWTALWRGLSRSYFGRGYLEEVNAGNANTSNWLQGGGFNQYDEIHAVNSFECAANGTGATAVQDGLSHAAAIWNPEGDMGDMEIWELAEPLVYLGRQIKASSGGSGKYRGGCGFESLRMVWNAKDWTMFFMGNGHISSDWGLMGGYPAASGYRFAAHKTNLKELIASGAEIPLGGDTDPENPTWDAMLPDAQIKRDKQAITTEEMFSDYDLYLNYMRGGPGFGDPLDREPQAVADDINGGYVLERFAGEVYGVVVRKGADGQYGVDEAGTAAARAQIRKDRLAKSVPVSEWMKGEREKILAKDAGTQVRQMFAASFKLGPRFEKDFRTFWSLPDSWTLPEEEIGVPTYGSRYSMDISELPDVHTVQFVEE
T1 sequence (Q8RM04 1-717): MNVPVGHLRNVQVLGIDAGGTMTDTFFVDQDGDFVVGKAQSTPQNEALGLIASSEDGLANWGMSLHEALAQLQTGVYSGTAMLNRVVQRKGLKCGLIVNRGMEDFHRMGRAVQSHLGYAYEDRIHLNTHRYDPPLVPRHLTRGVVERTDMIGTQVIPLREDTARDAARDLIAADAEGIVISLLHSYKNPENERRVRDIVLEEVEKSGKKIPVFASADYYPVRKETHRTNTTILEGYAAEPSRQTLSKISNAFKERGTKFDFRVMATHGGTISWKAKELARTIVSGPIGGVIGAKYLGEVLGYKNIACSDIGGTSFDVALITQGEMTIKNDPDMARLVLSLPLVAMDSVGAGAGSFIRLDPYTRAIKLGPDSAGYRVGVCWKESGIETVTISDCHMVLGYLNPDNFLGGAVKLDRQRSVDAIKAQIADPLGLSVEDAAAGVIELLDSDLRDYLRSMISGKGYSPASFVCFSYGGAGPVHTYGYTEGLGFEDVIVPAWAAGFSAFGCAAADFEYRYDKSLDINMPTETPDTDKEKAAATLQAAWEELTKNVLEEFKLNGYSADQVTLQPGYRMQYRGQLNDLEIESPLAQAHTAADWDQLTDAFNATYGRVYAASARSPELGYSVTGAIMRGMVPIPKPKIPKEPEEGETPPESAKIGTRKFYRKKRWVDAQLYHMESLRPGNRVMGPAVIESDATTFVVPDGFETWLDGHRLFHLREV
T1 sequence (Q8RM02 2-168 partner limits assumed): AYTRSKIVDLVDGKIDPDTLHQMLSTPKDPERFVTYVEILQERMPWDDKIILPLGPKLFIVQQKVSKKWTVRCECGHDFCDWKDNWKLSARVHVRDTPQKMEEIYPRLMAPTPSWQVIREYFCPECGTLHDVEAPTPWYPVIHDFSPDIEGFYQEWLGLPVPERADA
Experimental: Assays were performed in 2 mL (1 cm path length) quartz cuvettes that had been modified by fusing a serum bottle-style quartz top (7×13 mm at mouth), allowing the cuvettes to be sealed with a red rubber serum stopper. […] The addition of […] (3 U) and NADH (0.2 mM) allowed acetoacetate formation to be coupled to the oxidation of NADH. […] The reaction was monitored by measuring the decrease in absorbance at 340 nm (∈340 of 6.22 mM^−·cm^−1 for NADH) over time in an Agilent Technologies (Palo Alto, Calif.) model 8453 UV-Visible Spectroscopy System containing a thermostat-controlled cell holder at 30° C.

S-ADH from C. boidinii = experiment: S-ADH spectrophotometric assay, C. boidinii S-ADH; type: biochemical, Candida boidinii; details: alcohol oxidation rates, pH 7.6, 5 mM substrate, 0.2 mM NAD+; 2-propanol = 100
Experimental: as §1, with “Assays were initiated by addition of substrate (2.5 mM) and monitored over time by measuring the change in absorbance at 340 nm (∈340 of 6.22 mM^−1·cm^−1 for NADH).” left out

[4] = test system: S-ADH from M. vaccae JOB-5; experiment: S-ADH spectrophotometric assay, propane-grown M. vaccae JOB-5; type: biochemical, Mycobacterium vaccae strain JOB-5; details: alcohol oxidation rates, pH 7.6, 2.5 mM substrate, 0.2 mM NAD+; 2-propanol = 100; NA = no activity detected
Experimental: as §1

S-ADH from strain IP-1 = experiment: S-ADH spectrophotometric assay, partially purified S-ADH of isolate IP-1; type: biochemical, isopropanol-grown bacterial strain TDCC IP-1; details: alcohol oxidation rates, pH 7.6, 2.5 mM substrate, 0.2 mM NAD+; 2-propanol = 100; NA = no activity detected
Experimental: Protein purifications. […] Secondary alcohol dehydrogenase (S-ADH) from X. autotrophicus Py2 was purified via the following protocol. Cell-free extracts (380 mL) of isopropanol-grown X. autotrophicus Py2 (150 g) were prepared as described above, and applied to a 5×15 cm column of DEAE-Sepharose FAST FLOW (Diethylaminoethyl cross-linked agarose bead material; Catalog number 17-0709-10, Amersham Pharmacia Biotech, Piscataway, N.J.)) equilibrated in buffer A (25 mM MOPS (3-(N-morpholino)propanesulfonic acid), pH 7.6, 5% glycerol, 1 mM dithiothreitol) at a flow rate of 10 mL/min. After loading, the column was washed with […] buffer A and developed with a 2400 mL linear gradient of 90-290 mM KCl in buffer A. Fractions containing S-ADH activity were pooled and dialyzed against 2 L of 25 mM potassium phosphate (pH 6.2) containing 5% glycerol (buffer B) for 16 h at 4° C. […] After washing the column with 30 mL of buffer B, S-ADH was eluted with 20 mL of buffer A containing 10 mM NAD^+. Fractions containing S-ADH were then dialyzed against 2 L of buffer A for 16 h at 4° C., concentrated by ultrafiltration (using a YM30 ultrafiltration membrane; catalog no. 13722, from Millipore, Bedford, Mass.), and frozen in liquid nitrogen. Partially purified S-ADH from bacterial screen cultures was prepared as follows: cell-free extracts from 1 to 5 g of cell paste were prepared as described above and applied to a 5 mL HI TRAP Q column (quaternary, tetraethylammonium, cross-linked agarose bead material for use as an anion exchange matrix; catalog number 17-1153-01, Amersham Pharmacia Biotech) equilibrated in 100 mM MOPS, pH 7.6, containing 5% (v/v) glycerol (buffer C). The column was washed with 10 mL buffer C and developed with a 100 mL linear gradient of 0 to 100 mM NaCl in buffer C. Fractions containing S-ADH activity were pooled, concentrated to 0.5 mL using a 30 kDa MWCO (“molecular weight cut-off”) centrifugal membrane (catalog number UFV4BTK25, Millipore), and stored at −80° C.
as §1

ability to serve as electron donor in acetone reduction assays ([1]; data not shown): not
SMILES: NC(=O)C1=CN([C@@H]2O[C@H](COP(=O)(O)OP(=O)(O)OC[C@H]3O[C@@H](n4cnc5c(N)ncnc54)[C@H](OP(=O)(O)O)[C@@H]3O)[C@@H](O)[C@H]2O)C=CC1 [NADPH, nicotinamide adenine dinucleotide phosphate, reduced form]

SMILES: CC(=O)CC(=O)[O-].[Na+] [Na acetoacetate]
blood ketone body concentration at the end of perfusion [2]: 3 µmol·mL

SMILES: CO [methanol]
inhibition of S-ADH activity ([1]; saturating acetone, alcohol at about 13-fold over the Km value for acetone, data not shown): no inhibition was observed

Km ([1]; acetone at fixed saturating concentration, read-out: Km for NADH): 5.1 ± 0.4 µM
ability to serve as electron donor in acetone reduction assays ([1]; data not shown): could serve as the electron donor
SMILES: NC(=O)C1=CN([C@@H]2O[C@H](COP(=O)(O)OP(=O)(O)OC[C@H]3O[C@@H](n4cnc5c(N)ncnc54)[C@H](O)[C@@H]3O)[C@@H](O)[C@H]2O)C=CC1 [NADH, nicotinamide adenine dinucleotide, reduced form]

SMILES: CCCCO [1-Butanol]
Relative S-ADH Activity (%) X. Py2, alcohol oxidation ([1]; alcohol oxidation rates, pH 7.6, 2.5 mM substrate, 0.2 mM NAD+, 2-propanol = 100, NA = no activity detected): 7%
specific activity, alcohol oxidation ([1]; at pH 7.8): 1.7±0.2 μmol alcohol oxidized min^−1mg^−1 protein
activity as substrate and inhibition of acetone carboxylation activity [3]: not active nor did they inhibit acetone carboxylation activity
Relative S-ADH Activity (%) C. boidinii, alcohol oxidation (S-ADH from C. boidinii): 6%
Relative S-ADH Activity (%) JOB 5, alcohol oxidation [4]: 10%
Relative S-ADH Activity (%) IP-1, alcohol oxidation (S-ADH from strain IP-1): 2%
